According to patent publication US12077503B2, “Substituted cyclic amides and their use as herbicides” (FMC CORPORATION, priority 2015, dated 2024):

What was measured:
Format in all cases: in vivo
[1] = tested on: giant foxtail (Setaria faberii); assay: Test A preemergence; details: Setaria faberi, pre-emergence, 240 h, preemergence, 0 to 100 scale where 0 is no effect and 100 is complete control, read-out: Foxtail, Giant plant response rating; for pest or weed control at 125 g/ha: 125 g ai/ha, visual injury rating, approximately 10 d; for pest or weed control at 500 g/ha: 500 g ai/ha
How it was run: (§1)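 Seeds sprayed preemergence with a directed soil spray, or plants at 2 to 10 cm height and one- to two-leaf stage sprayed postemergence, with test chemicals in a non-phytotoxic solvent mixture containing surfactant, in loam soil–sand blend. Injury rated visually against untreated controls after about 10 d in greenhouse, 0 (no effect) to 100 (complete control).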

[2] = tested on: ryegrass, Italian (Italian ryegrass, Lolium multiflorum); assay: Test A preemergence; details: Lolium multiflorum, pre-emergence, 240 h, preemergence, 0 to 100 scale where 0 is no effect and 100 is complete control, read-out: Ryegrass, Italian plant response rating; for pest or weed control at 125 g/ha: 125 g ai/ha, visual injury rating, approximately 10 d; for pest or weed control at 500 g/ha: 500 g ai/ha
How it was run: as §1

[3] = tested on: barnyardgrass (Echinochloa crus-galli); assay: Test A preemergence; details: Echinochloa crus-galli, pre-emergence, 240 h, preemergence, 0 to 100 scale where 0 is no effect and 100 is complete control, read-out: Barnyardgrass plant response rating; for pest or weed control at 125 g/ha: 125 g ai/ha, visual injury rating, approximately 10 d; for pest or weed control at 500 g/ha: 500 g ai/ha
How it was run: as §1

Kochia (Kochia scoparia) [4] = assay: Test A preemergence; details: Bassia scoparia, pre-emergence, 240 h, preemergence, 0 to 100 scale where 0 is no effect and 100 is complete control, read-out: Kochia plant response rating; for pest or weed control at 125 g/ha: 125 g ai/ha, visual injury rating, approximately 10 d; for pest or weed control at 500 g/ha: 500 g ai/ha
How it was run: as §1

[5] = tested on: ragweed (common ragweed, Ambrosia elatior); assay: Test A preemergence; details: Ambrosia artemisiifolia, pre-emergence, 240 h, preemergence, 0 to 100 scale where 0 is no effect and 100 is complete control, read-out: Ragweed plant response rating; for pest or weed control at 125 g/ha: 125 g ai/ha, visual injury rating, approximately 10 d; for pest or weed control at 500 g/ha: 500 g ai/ha
How it was run: as §1

[6] = tested on: pigweed (Amaranthus retroflexus); assay: Test A preemergence; details: Amaranthus retroflexus, pre-emergence, 240 h, preemergence, 0 to 100 scale where 0 is no effect and 100 is complete control, read-out: Pigweed plant response rating; for pest or weed control at 125 g/ha: 125 g ai/ha, visual injury rating, approximately 10 d; for pest or weed control at 500 g/ha: 500 g ai/ha
[7] = tested on: ryegrass, Italian (Italian ryegrass, Lolium multiflorum); assay: Test A postemergence; details: Lolium multiflorum, post-emergence, 240 h, postemergence; for pest or weed control at 125 g/ha: 125 g ai/ha, visual injury vs untreated controls after approx. 10 d, 0 = no effect, 100 = complete control, read-out: Ryegrass, Italian plant response rating (0 to 100 scale); for pest or weed control at 500 g/ha: 500 g ai/ha, 0 to 100 scale, 0 is no effect, 100 is complete control, read-out: Ryegrass, Italian plant response rating
How it was run: as §1

Kochia (Kochia scoparia) [8] = assay: Test A postemergence; details: Bassia scoparia, post-emergence, 240 h, postemergence; for pest or weed control at 125 g/ha: 125 g ai/ha, visual injury vs untreated controls after approx. 10 d, 0 = no effect, 100 = complete control, read-out: Kochia plant response rating (0 to 100 scale); for pest or weed control at 500 g/ha: 500 g ai/ha, 0 to 100 scale, 0 is no effect, 100 is complete control, read-out: Kochia plant response rating
How it was run: as §1

[9] = tested on: ragweed (common ragweed, Ambrosia elatior); assay: Test A postemergence; details: Ambrosia artemisiifolia, post-emergence, 240 h, postemergence; for pest or weed control at 125 g/ha: 125 g ai/ha, visual injury vs untreated controls after approx. 10 d, 0 = no effect, 100 = complete control, read-out: Ragweed plant response rating (0 to 100 scale); for pest or weed control at 500 g/ha: 500 g ai/ha, 0 to 100 scale, 0 is no effect, 100 is complete control, read-out: Ragweed plant response rating
How it was run: as §1

[10] = tested on: wheat (Triticum aestivum); assay: Test A postemergence; details: Triticum aestivum, post-emergence, 240 h, postemergence; for plant injury at 125 g/ha: 125 g ai/ha, visual injury vs untreated controls after approx. 10 d, 0 = no effect, 100 = complete control, read-out: Wheat plant response rating (0 to 100 scale); for plant injury at 500 g/ha: 500 g ai/ha, 0 to 100 scale, 0 is no effect, 100 is complete control, read-out: Wheat plant response rating
How it was run: as §1

[11] = tested on: blackgrass (Alopecurus myosuroides); assay: Test A postemergence; details: Alopecurus myosuroides, post-emergence, 240 h, postemergence; for pest or weed control at 125 g/ha: 125 g ai/ha, visual injury vs untreated controls after approx. 10 d, 0 = no effect, 100 = complete control, read-out: Blackgrass plant response rating (0 to 100 scale); for pest or weed control at 500 g/ha: 500 g ai/ha, 0 to 100 scale, 0 is no effect, 100 is complete control, read-out: Blackgrass plant response rating
How it was run: as §1

rice (Oryra sativa) = assay: Test B flooded paddy test; details: Oryza sativa, 250 g ai/ha, Flood; 0 to 100 scale where 0 is no effect and 100 is complete control; read-out: Rice plant response rating
How it was run: (§2)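 Plants at 2-leaf stage flooded to 3 cm above soil, with compounds applied directly to paddy water and that depth maintained. Plants kept in greenhouse 13–15 d. Visual rating versus controls on a 0 (no effect) to 100 (complete control) scale.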

[12] = tested on: sedge, umbrella (small-flower umbrella sedge, Cyperus difformis); assay: Test B flooded paddy test; details: Cyperus difformis, 250 g ai/ha, Flood; 0 to 100 scale where 0 is no effect and 100 is complete control; read-out: Sedge, Umbrella plant response rating
How it was run: as §2

[13] = tested on: barnyardgrass (Echinochloa crus-galli); assay: Test B flooded paddy test; details: Echinochloa crus-galli, 250 g ai/ha, Flood; 0 to 100 scale where 0 is no effect and 100 is complete control; read-out: Barnyardgrass plant response rating
How it was run: as §2

[14] = tested on: ducksalad (Heteranthera limosa); assay: Test B flooded paddy test; details: Heteranthera limosa, 250 g ai/ha, Flood; 0 to 100 scale where 0 is no effect and 100 is complete control; read-out: Ducksalad plant response rating
How it was run: as §2

SMILES | pest or weed control at 125 g/ha [1] [%] | pest or weed control at 500 g/ha [1] [%] | pest or weed control at 125 g/ha [2] [%] | pest or weed control at 500 g/ha [2] [%] | pest or weed control at 125 g/ha [3] [%] | pest or weed control at 500 g/ha [3] [%] | pest or weed control at 125 g/ha (Kochia (Kochia scoparia) [4]) [%] | pest or weed control at 125 g/ha [5] [%] | pest or weed control at 500 g/ha [5] [%] | pest or weed control at 125 g/ha [6] [%] | pest or weed control at 500 g/ha [6] [%] | pest or weed control at 125 g/ha [7] [%] | pest or weed control at 500 g/ha [7] [%] | pest or weed control at 125 g/ha (Kochia (Kochia scoparia) [8]) [%] | pest or weed control at 500 g/ha (Kochia (Kochia scoparia) [8]) [%] | pest or weed control at 125 g/ha [9] [%] | pest or weed control at 500 g/ha [9] [%] | plant injury at 125 g/ha [10] [%] | plant injury at 500 g/ha [10] [%] | pest or weed control at 125 g/ha [11] [%] | further results
COc1ccc([C@H]2CN(C)C(=O)[C@@H]2C(=O)Nc2ccccc2SC)c(OC)c1 [Compound 1216] | 30 | 80 | 0 | 0 | 0 | 90 | 0 | 0 | 20 | 0 | 0 | 0 | 0 | 0 | 40 | 0 | 0 | 0 | 0 | 0 | pest or weed control at 500 g/ha [11]: 0%; pest or weed control at 250 g/ha (rice (Oryra sativa)): 0%; pest or weed control at 250 g/ha [12]: 0%; pest or weed control at 250 g/ha [13]: 0%; pest or weed control at 250 g/ha [14]: 0%
COc1cc([C@H]2CN(C)C(=O)[C@@H]2C(=O)Nc2ccccc2SC)cc(OC)c1OC [Compound 1218] | 80 | 90 | 0 | 0 | 30 | 100 | 0 | 0 | 0 | 0 | 0 | 0 | 0 | 0 | 20 | 0 | 0 | 0 | 0 | 0 | pest or weed control at 500 g/ha (Kochia (Kochia scoparia) [4]): 0%; pest or weed control at 500 g/ha [11]: 0%; pest or weed control at 250 g/ha (rice (Oryra sativa)): 0%; pest or weed control at 250 g/ha [12]: 0%; pest or weed control at 250 g/ha [13]: 0%; pest or weed control at 250 g/ha [14]: 40%
CN1CC[C@H](c2ccc(C(F)(F)F)cc2)[C@@H](C(=O)Nc2ccccc2C(F)(F)F)C1=O [Compound 1224] | 80 | 90 | 0 | 20 | 40 | 80 | 0 | 0 | 20 | 50 | 70 | 0 | 0 | 0 | 0 | 0 | 0 | 0 | 0 | 0 | pest or weed control at 500 g/ha (Kochia (Kochia scoparia) [4]): 0%; pest or weed control at 500 g/ha [11]: 0%; pest or weed control at 250 g/ha (rice (Oryra sativa)): 0%; pest or weed control at 250 g/ha [12]: 0%; pest or weed control at 250 g/ha [13]: 0%; pest or weed control at 250 g/ha [14]: 70%
CN1CC[C@H](c2ccc(C(F)(F)F)cc2)[C@@H](C(=O)Nc2ccc(F)c(F)c2F)C1=O [Compound 1226] | 100 | 100 | 80 | 80 | 90 | 100 | 60 | 0 | 30 | 80 | 90 | 0 | 0 | 60 | 60 | 0 | 50 | 0 | 0 | 20 | pest or weed control at 500 g/ha (Kochia (Kochia scoparia) [4]): 70%; pest or weed control at 500 g/ha [11]: 30%; pest or weed control at 250 g/ha (rice (Oryra sativa)): 20%; pest or weed control at 250 g/ha [12]: 0%; pest or weed control at 250 g/ha [13]: 60%; pest or weed control at 250 g/ha [14]: 100%
CN1CC[C@H](c2ccc(C(F)(F)F)cc2)[C@@H](C(=O)Nc2cccc(Cl)c2F)C1=O [Compound 1228] | 90 | 90 | 30 | 60 | 90 | 90 | 0 | 0 | 0 | 20 | 60 | 0 | 30 | 60 | 60 | 0 | 0 | 0 | 30 | 0 | pest or weed control at 500 g/ha (Kochia (Kochia scoparia) [4]): 0%; pest or weed control at 500 g/ha [11]: 40%; pest or weed control at 250 g/ha (rice (Oryra sativa)): 30%; pest or weed control at 250 g/ha [12]: 0%; pest or weed control at 250 g/ha [13]: 50%; pest or weed control at 250 g/ha [14]: 100%
